system: Plasmodium falciparum; assay: GSK_TCMDC: Inhibition of Plasmodium falciparum 3D7 in whole erythrocytes, using parasite LDH activity as an index of growth.; format: functional, organism-based; conditions: Plasmodium falciparum, 3D7

CC(C)(C)CCN1CCC(CNC(=O)c2cc(-c3cccc(Cl)c3)cs2)C1 (configuration not stated) and CC(C)(C)c1ccc2[nH]c(-c3ccc(/C=C/C(=O)NC4CCN(Cc5ccccc5)CC4)cc3)nc2c1 are within 1.5-fold of each other in XC50: 819 nM for the first, 589 nM for the second.

CCc1ccc(S(=O)(=O)Nc2cccc(CCN3CCC(N4CCCCC4)CC3)c2)cc1 and Cc1cc(C)c2nc(N3CCC(C(=O)NCCCN4CCC(N5CCCCC5)CC4)CC3)sc2c1 are within 1.5-fold of each other in XC50: 898 nM for the first, 838 nM for the second.

Cc1cc(C)c(C(=O)Nc2ccc3nc(C)cc(N)c3c2)c(C)c1 and O=C(Nc1ccc(OC2CCN(Cc3ccco3)C2)c(Cl)c1)c1ccc2ncccc2c1 (configuration not stated) are within 1.5-fold of each other in XC50: 1100 nM for the first, 1080 nM for the second.

COc1ccc2c(NN=Cc3ccccn3)ccnc2c1 and COc1cc(NCCCCNc2ccc(Cl)c(Cl)c2)nc2ccccc12 are within 1.5-fold of each other in XC50: 374 nM for the first, 527 nM for the second.

Compared with Cc1cc(-c2nc3ccc(CN4CCN(C)CC4)cc3[nH]2)nn1Cc1cc(Cl)ccc1OCc1ccccc1, COc1ccc(CN2CCN(CCOC(c3ccccc3)c3ccc(Cl)cc3)CC2)c(O)c1 (configuration not stated) is 1.6-fold lower in XC50: 1120 nM for the first, 713 nM for the second.

Going from COc1ccc2nccc([C@@H](O)CN3CCC(NCc4cnc5c(c4)NC(=O)CS5)CC3)c2c1 to CC[C@H]1CN2CC[C@H]1C[C@H]2[C@H](O)c1cc(-c2ccccc2C)nc2ccc(OC)cc12, the XC50 falls from 860 nM to 195 nM (4.4-fold).

Compared with CC(C)NCc1ccc(-c2cccc(NC(=O)c3ccc(C#N)cc3)c2)cc1, CNC(=O)Cc1ccc(C(=O)Nc2cccc(-c3cccc(-c4nc5cc(C(F)(F)F)ccc5[nH]4)c3)c2)cc1 is 1.7-fold lower in XC50: 740 nM for the first, 440 nM for the second.

COC(=O)c1cccc(N2CCN(CCCNC(=O)/C(=C/C=C/c3cc4cc(Cl)c(Cl)cc4[nH]3)OC)CC2)c1 and CO/C(=C\C=C\c1cc2cc(Cl)c(Cl)cc2[nH]1)C(=O)NCCCN1CCCC[C@H]1C are within 1.5-fold of each other in XC50: 667 nM for the first, 791 nM for the second.

CC(C)c1ccc(Cn2cc(-c3ccncc3)c3cc(OCc4ccccc4)ccc32)cc1 and CC(Cc1ccc(C(=O)N2CCN(C(=O)c3ccc(CC(C)NCCc4cccc(Cl)c4)cc3)CC2)cc1)NCCc1cccc(Cl)c1 (configuration not stated) are within 1.5-fold of each other in XC50: 706 nM for the first, 677 nM for the second.

Going from O=C(/C=C/c1ccc(C(F)(F)F)cc1)NCCCCCN1CCCN(C(=O)Nc2ccc(Cl)c(Cl)c2)CC1 to O=C(Nc1cccc(CN2CCCN(Cc3cccc(O)c3)CC2)c1)c1ccc(Cl)c(Cl)c1, the XC50 rises from 421 nM to 664 nM (1.6-fold).

CCCCCc1ccc(NC(=O)Nc2ccc(Cn3ncc(N4CCCNCC4)c(Cl)c3=O)cc2)cc1 and O=C(NCc1ccc(F)cc1)c1ccc(N2CCN(c3ccncc3)CC2)cn1 are within 1.5-fold of each other in XC50: 1140 nM for the first, 886 nM for the second.

COc1cc2ccccc2cc1CNCCCCCCNCc1cc2ccccc2cc1OC and CCCc1cc(OC)c(C[C@H]2c3cc(O)c(Cl)cc3CCN2C)cc1OC are within 1.5-fold of each other in XC50: 720 nM for the first, 576 nM for the second.

Compared with N#Cc1ccc(N/C(=N\c2cccc(Cl)c2Cl)NCc2ccc(Cl)cc2Cl)c(O)c1, O=C(c1cc(C(=O)Nc2ccccc2F)c(=O)n(-c2ccccc2F)c1)c1cc(Cl)ccc1O is 1.6-fold lower in XC50: 1120 nM for the first, 705 nM for the second.

Cc1cc(N[C@@H](CC(C)C)C(=O)NCc2cccs2)nc(Nc2ccccc2)n1 and Clc1ccccc1CNc1noc(-c2sccc2Br)n1 are within 1.5-fold of each other in XC50: 1130 nM for the first, 787 nM for the second.

COc1cccc2c1CCN(CCN1CCC(NC(=O)c3ccc(-c4cccc(Cl)c4Cl)cc3)CC1)C2 and Cc1cccc2nc(-c3ccc(-c4ccc(CN5CCCCC5CO)cc4)cc3)[nH]c12 (configuration not stated) are within 1.5-fold of each other in XC50: 699 nM for the first, 808 nM for the second.

First: c1cc(-c2ccc(CNC3CC3)cc2)cc(-c2nc3ccccc3[nH]2)c1
Second: NC(=O)c1cccc(C(=O)Nc2ccc(-c3cccc(-c4nc5cc(F)ccc5[nH]4)c3)cc2)c1
The XC50 of the first is 1.9-fold higher: 1660 nM for the first, 865 nM for the second.

Compared with COc1cc(C=CC(=O)NC2CCC(CN3CCC(c4c[nH]c5ccccc45)CC3)CC2)cc(OC)c1 (configuration not stated), CCc1cn2c3c(cc(C(=O)N[C@@H](Cc4ccccc4)[C@H](O)CNC4CCCCC4)cc13)N(CC)S(=O)(=O)CC2 is 26-fold lower in XC50: 807 nM for the first, 31.4 nM for the second.

Compared with COc1cc(Cc2cnc(N)nc2N)cc(OCCCCNS(=O)(=O)C(F)(F)F)c1OC, CCOC(=O)NC1=NC(C)(C)N(OCc2cccc3c2ccc2ccccc23)C(NC(=O)OCC)=N1 is 6-fold lower in XC50: 1040 nM for the first, 172 nM for the second.

CC(C)/C(=C(/F)CN1C(=O)C(NC(=O)c2cc3ccccc3[nH]2)C(=O)N(c2ccccc2)c2ccccc21)c1ccccc1 (configuration not stated) gave an XC50 of 697 nM.

Source: ChEMBL document CHEMBL1157539, “Thousands of chemical starting points for antimalarial lead identification” (Nature, 2010)
